In US8293790B2, “Pharmaceutical compositions comprising DGLA and benzoyl peroxide and methods of use thereof” (Dignity Sciences Limited, priority 2011, dated 2012):
≈ marks a conversion by molar mass, not a printed value. Read-outs that look alike come from different tables or passages of the source. Marks after values point to notes of the source that are not given here.

Assays:
P. acnes [1] = test: Agar dilution method: growth of P. acnes and MIC, compounds tested singly; assay type: cell-based, Propionibacterium acnes; design: key to Growth Index (+++, ++, +, −) Plate 1 / Growth Index (+++, ++, +, −) Plate 2 / Growth Index (+++, ++, +, −) Plate 3 / Growth Index (+++, ++, +, −) Avg: +++: confluent growth (comparable to control); ++: less confluent growth; +: marked reduction in growth to multiple tiny, single colonies; −: no growth present; MIC: unit: mg/mL; conditions: for MIC: compound alone
Method: (§1) Several compounds including fatty acids such as DGLA, 15-OHEPA, and 15-HETrE were tested to determine their capacity to inhibit the growth of P. acnes. In an exemplary method, an agar dilution method was used to determine the minimum inhibitory concentration (MIC) of each tested compound. Briefly, the agar dilution method involved preparing a series of concentrations of each compound (e.g., nicotinamide, benzoyl peroxide, adapalene, metronidazole, DGLA, 15-OHEPA, and 15-HETrE) in a Reinforced Clostridial Agar (RCA) media that facilitates growth of P. acnes under anaerobic conditions. An inoculum of P. acnes was prepared by incubation of P. acnes for approximately seven days at 35-37° C. to achieve a ≧1.0 OD600 inoculum of P. acnes in RCM broth. A portion of this inoculum was then added to the surface of each plate as a 10 μL spot and incubated at 35-37° C. for 72 hours or more. Growth of P. acnes was then observed and compared to control plates in which no compound has been added, and positive inhibition plates prepared with erythromycin. […] The growth of P. acnes in the presence of nicotinamide, benzoyl peroxide, adapalene, metronidazole, DGLA, 15-OHEPA, and 15-HETrE was determined with varying concentrations of the compound (see, Table 2). Next, the MIC was determined as the concentration at which a marked reduction (+) occurs in the appearance of growth on the test plate (as per Clinical and Laboratory Standards Institute M11-A7).

P. acnes [2] = test: Agar dilution method: growth of P. acnes and MIC, fatty acid compounds in combination with other compounds; assay type: cell-based, Propionibacterium acnes
Method: as §1, with “M11-A7). The compounds tested singly in Example 1 were tested in combination with one another to determine the capacity of the combination to inhibit the growth of P. acnes. In an exemplary method, the MIC was determined for each of the combination as described in Example 1. Briefly, test combinations included DGLA with nicotinamide, benzoyl peroxide, adapalene, or metronidazole; 15-HETrE with nicotinamide, benzoyl peroxide, adapalene, or metronidazole; and 15-OHEPA with nicotinamide, benzoyl peroxide, adapalene, or metronidazole. The tables below show the growth of P. acnes in the presence of 0.4 or 1.0 mg/mL DGLA with varying concentrations of nicotinamide, benzoyl peroxide, adapalene, or metronidazole (Table 3); the growth of P. acnes in the presence of 0.01 or 0.05 mg/mL 15-HETrE with varying concentrations of nicotinamide, benzoyl peroxide, adapalene, or metronidazole (Table 5); and the growth of P. acnes in the presence of 0.5 or 0.1 mg/mL 15-OHEPA with varying concentrations of nicotinamide, benzoyl peroxide, adapalene, or metronidazole (Table 7).” for “M11-A7).”

[3] = Cutibacterium acnes, MIC = concentration with marked reduction (+) of growth, read-out: MIC (mg/mL) as per P-11-0007 or P-11-0008 Addendum A
[4] = compound at 0.00001 mg/mL in agar
[5] = compound at 0.0001 mg/mL in agar
[6] = compound at 0.001 mg/mL in agar
[7] = compound at 0.010 mg/mL in agar
[8] = compound at 0.025 mg/mL in agar
[9] = compound at 0.050 mg/mL in agar
[10] = compound at 0.075 mg/mL in agar

CCCCC/C=C\C/C=C\C/C=C\CCCCCCC(=O)O [DGLA, cis-8,11,14-eicosatrienoic acid]
effect on growth of P. acnes on its own (P. acnes [1]; 0.4 mg/ml): no effect on its own | MIC (P. acnes [1]; [3]): 400 to 600 µg/mL (≈ 1310 to 1960 µM) | Growth Index (+++, ++, +, −) Avg (P. acnes [1]; compound at 0.2 mg/mL in agar): +++ | Growth Index (+++, ++, +, −) Plate 1 (P. acnes [1]; compound at 0.2 mg/mL in agar): +++ | Growth Index (+++, ++, +, −) Plate 2 (P. acnes [1]; compound at 0.2 mg/mL in agar): +++ | Growth Index (+++, ++, +, −) Plate 3 (P. acnes [1]; compound at 0.2 mg/mL in agar): +++ | Growth Index (+++, ++, +, −) Avg (P. acnes [1]; compound at 0.4 mg/mL in agar): +++ | Growth Index (+++, ++, +, −) Plate 1 (P. acnes [1]; compound at 0.4 mg/mL in agar): +++ | Growth Index (+++, ++, +, −) Plate 2 (P. acnes [1]; compound at 0.4 mg/mL in agar): +++ | Growth Index (+++, ++, +, −) Plate 3 (P. acnes [1]; compound at 0.4 mg/mL in agar): +++ | Growth Index (+++, ++, +, −) Avg (P. acnes [1]; compound at 0.6 mg/mL in agar): + | Growth Index (+++, ++, +, −) Plate 1 (P. acnes [1]; compound at 0.6 mg/mL in agar): ++ | Growth Index (+++, ++, +, −) Plate 2 (P. acnes [1]; compound at 0.6 mg/mL in agar): − | Growth Index (+++, ++, +, −) Plate 3 (P. acnes [1]; compound at 0.6 mg/mL in agar): ++ | Growth Index (+++, ++, +, −) Avg (P. acnes [1]; compound at 0.8 mg/mL in agar): + | Growth Index (+++, ++, +, −) Plate 1 (P. acnes [1]; compound at 0.8 mg/mL in agar): ++ | Growth Index (+++, ++, +, −) Plate 2 (P. acnes [1]; compound at 0.8 mg/mL in agar): + | Growth Index (+++, ++, +, −) Plate 3 (P. acnes [1]; compound at 0.8 mg/mL in agar): + | Growth Index (+++, ++, +, −) Avg (P. acnes [1]; compound at 1.0 mg/mL in agar): + | Growth Index (+++, ++, +, −) Plate 1 (P. acnes [1]; compound at 1.0 mg/mL in agar): + | Growth Index (+++, ++, +, −) Plate 2 (P. acnes [1]; compound at 1.0 mg/mL in agar): + | Growth Index (+++, ++, +, −) Plate 3 (P. acnes [1]; compound at 1.0 mg/mL in agar): +

CCCCCC(O)/C=C/C=C\C/C=C\CCCCCCC(=O)O (centres unmarked) [15-HETrE, 15-Hydroxy-eicosa-8(Z),11(Z),13(E)-trienoic acid]
effect on growth of P. acnes on its own (P. acnes [1]; 0.01 mg/ml): no effect on its own | Growth Index (+++, ++, +, −) Avg (P. acnes [1]; [4]): +++ | Growth Index (+++, ++, +, −) Plate 1 (P. acnes [1]; [4]): +++ | Growth Index (+++, ++, +, −) Plate 2 (P. acnes [1]; [4]): +++ | Growth Index (+++, ++, +, −) Plate 3 (P. acnes [1]; [4]): +++ | Growth Index (+++, ++, +, −) Avg (P. acnes [1]; [5]): +++ | Growth Index (+++, ++, +, −) Plate 1 (P. acnes [1]; [5]): +++ | Growth Index (+++, ++, +, −) Plate 2 (P. acnes [1]; [5]): +++ | Growth Index (+++, ++, +, −) Plate 3 (P. acnes [1]; [5]): +++ | Growth Index (+++, ++, +, −) Avg (P. acnes [1]; [6]): +++ | Growth Index (+++, ++, +, −) Plate 1 (P. acnes [1]; [6]): +++ | Growth Index (+++, ++, +, −) Plate 2 (P. acnes [1]; [6]): +++ | Growth Index (+++, ++, +, −) Plate 3 (P. acnes [1]; [6]): +++ | Growth Index (+++, ++, +, −) Avg (P. acnes [1]; compound at 0.01 mg/mL in agar): ++ | Growth Index (+++, ++, +, −) Plate 1 (P. acnes [1]; compound at 0.01 mg/mL in agar): ++ | Growth Index (+++, ++, +, −) Plate 2 (P. acnes [1]; compound at 0.01 mg/mL in agar): +++ | Growth Index (+++, ++, +, −) Plate 3 (P. acnes [1]; compound at 0.01 mg/mL in agar): ++

COc1ccc(-c2ccc3cc(C(=O)O)ccc3c2)cc1C12CC3CC(CC(C3)C1)C2 [Adapalene, 6-[3-(1-adamantyl)-4-methoxyphenyl]-2-naphthoic acid]
MIC (mg/mL) with 0.05 mg/mL 15-HETrE spike (P. acnes [2]; 0.05 mg/mL 15-HETrE spike, itself an inhibitory concentration): <0.2 mg/mL | MIC (mg/mL) with 0.05 mg/mL 15-OHEPA spike (P. acnes [2]; 0.05 mg/mL 15-OHEPA spike): >0.8 mg/mL | MIC (mg/mL) with 0.1 mg/mL 15-OHEPA spike (P. acnes [2]; 0.1 mg/mL 15-OHEPA spike, itself an inhibitory concentration): <0.2 mg/mL | MIC (mg/mL) with 0.4 mg/mL dGLA spike (P. acnes [2]; 0.4 mg/mL dGLA spike, dGLA supplied by Sigma, cat# E4504): >0.6* mg/mL | MIC (mg/mL) with 1.0 mg/mL dGLA spike (P. acnes [2]; 1.0 mg/mL dGLA spike, dGLA supplied by Cayman, cat# 90230): >0.6* mg/mL | growth of P. acnes in combination with 15-OHEPA compared with 15-OHEPA alone (P. acnes [2]; in combination with 15-OHEPA): did not reduce the growth of P. Acnes below that of 15 OHEPA used alone | growth of P. acnes in combination with DGLA compared with DGLA alone (P. acnes [2]; in combination with DGLA): did not reduce the growth of P. Acnes below that of DGLA used alone | MIC (P. acnes [1]; [3]): > 800 µg/mL | MIC (P. acnes [1]; no unit in the sentence): > 0.8 | Growth Index (+++, ++, +, −) Avg (P. acnes [1]; compound at 0.2 mg/mL in agar): +++ | Growth Index (+++, ++, +, −) Plate 1 (P. acnes [1]; compound at 0.2 mg/mL in agar): +++ | Growth Index (+++, ++, +, −) Plate 2 (P. acnes [1]; compound at 0.2 mg/mL in agar): +++ | Growth Index (+++, ++, +, −) Plate 3 (P. acnes [1]; compound at 0.2 mg/mL in agar): +++ | Growth Index (+++, ++, +, −) Avg (P. acnes [1]; compound at 0.4 mg/mL in agar): +++ | Growth Index (+++, ++, +, −) Plate 1 (P. acnes [1]; compound at 0.4 mg/mL in agar): +++ | Growth Index (+++, ++, +, −) Plate 2 (P. acnes [1]; compound at 0.4 mg/mL in agar): +++ | Growth Index (+++, ++, +, −) Plate 3 (P. acnes [1]; compound at 0.4 mg/mL in agar): +++ | Growth Index (+++, ++, +, −) Avg (P. acnes [1]; compound at 0.6 mg/mL in agar): ++ | Growth Index (+++, ++, +, −) Plate 1 (P. acnes [1]; compound at 0.6 mg/mL in agar): ++ | Growth Index (+++, ++, +, −) Plate 2 (P. acnes [1]; compound at 0.6 mg/mL in agar): ++ | Growth Index (+++, ++, +, −) Plate 3 (P. acnes [1]; compound at 0.6 mg/mL in agar): +++ | Growth Index (+++, ++, +, −) Avg (P. acnes [1]; compound at 0.8 mg/mL in agar): ++ | Growth Index (+++, ++, +, −) Plate 1 (P. acnes [1]; compound at 0.8 mg/mL in agar): ++ | Growth Index (+++, ++, +, −) Plate 2 (P. acnes [1]; compound at 0.8 mg/mL in agar): ++ | Growth Index (+++, ++, +, −) Plate 3 (P. acnes [1]; compound at 0.8 mg/mL in agar): ++

CC[C@H]1OC(=O)[C@H](C)[C@@H](O[C@H]2C[C@@](C)(OC)[C@@H](O)[C@H](C)O2)[C@H](C)[C@@H](O[C@@H]2O[C@H](C)C[C@H](N(C)C)[C@H]2O)[C@](C)(O)C[C@@H](C)C(=O)[C@H](C)[C@@H](O)[C@]1(C)O [Erythromycin]
MIC (P. acnes [1]; [3]): 0.01 to 0.05 µg/mL (≈ 0.0136 to 0.0681 µM)

CCC=CCC(O)C=CC=CCC=CCC=CCCCC(=O)O (centres unmarked) [15-OHEPA, 15-Hydroxy-eicosa-5,8,11,13,17-pentaenoic acid]
effect on growth of P. acnes on its own (P. acnes [1]; 0.05 mg/mL): no effect on its own | MIC (P. acnes [1]; [3]): 50 to 75 µg/mL (≈ 157 to 236 µM) | Growth Index (+++, ++, +, −) Avg (P. acnes [1]; [7]): +++ | Growth Index (+++, ++, +, −) Plate 1 (P. acnes [1]; [7]): +++ | Growth Index (+++, ++, +, −) Plate 2 (P. acnes [1]; [7]): +++ | Growth Index (+++, ++, +, −) Plate 3 (P. acnes [1]; [7]): +++ | Growth Index (+++, ++, +, −) Avg (P. acnes [1]; [8]): +++ | Growth Index (+++, ++, +, −) Plate 1 (P. acnes [1]; [8]): +++ | Growth Index (+++, ++, +, −) Plate 2 (P. acnes [1]; [8]): +++ | Growth Index (+++, ++, +, −) Plate 3 (P. acnes [1]; [8]): +++ | Growth Index (+++, ++, +, −) Avg (P. acnes [1]; [9]): +++ | Growth Index (+++, ++, +, −) Plate 1 (P. acnes [1]; [9]): +++ | Growth Index (+++, ++, +, −) Plate 2 (P. acnes [1]; [9]): +++ | Growth Index (+++, ++, +, −) Plate 3 (P. acnes [1]; [9]): +++ | Growth Index (+++, ++, +, −) Avg (P. acnes [1]; [10]): + | Growth Index (+++, ++, +, −) Plate 1 (P. acnes [1]; [10]): + | Growth Index (+++, ++, +, −) Plate 2 (P. acnes [1]; [10]): + | Growth Index (+++, ++, +, −) Plate 3 (P. acnes [1]; [10]): +
